Measured values from ChEMBL document CHEMBL1129200, “Synthesis and cytotoxic activity of phenyl-hexahydropyrrolo[3,4-c]carbazoles” (Bioorg Med Chem Lett, 1996).
pIC50: −log10 of the molar value.

Assays:
P388 = test: Cytotoxic activity against P-388 cell lines.; format: functional, cell-based; conditions: Mus musculus
A549 = test: Cytotoxic activity against A-549 cell lines.; format: functional, cell-based; conditions: Homo sapiens
HT-29 = test: Cytotoxic activity against HT-29 cell lines.; format: functional, cell-based; conditions: Homo sapiens
SK-MEL-28 = test: Cytotoxic activity against MEL-28 cell lines.; format: functional, cell-based; conditions: Homo sapiens
SK-MEL-2 = test: Cytotoxic activity against SK-MEL-2 melanoma cell lines.; format: functional; conditions: Homo sapiens
UACC-62 = test: Cytotoxic activity against UACC-62 melanoma cell lines.; format: functional; conditions: Homo sapiens
A498 = test: Cytotoxic activity against A 498 renal cancer cell lines.; format: functional; conditions: Homo sapiens
SNB-75 = test: Cytotoxic activity against SNB-75 CNS tumor cell line cell lines.; format: functional; conditions: Homo sapiens
U-251 = test: Cytotoxic activity against U251 CNS tumor cell line cell lines.; format: functional; conditions: Homo sapiens
RXF 393 = test: Cytotoxic activity against […] renal cancer cell lines.; format: functional; conditions: Homo sapiens
HOP-92 = test: Cytotoxic activity against HOP-92 non small cell lung cancer cell lines.; format: functional; conditions: Homo sapiens
OVCAR-4 = test: Cytotoxic activity against OVCAR-4 ovarian cancer cell lines.; format: functional; conditions: Homo sapiens
MDA-MB-435 = test: Cytotoxic activity against MDA-MB-435 breast cancer cell lines.; format: functional; conditions: Homo sapiens
HOP-62 = test: Cytotoxic activity against HOP-62 non small cell lung cancer cell lines.; format: functional; conditions: Homo sapiens
MDA-N = test: Cytotoxic activity against MDA-N breast cancer cell lines.; format: functional; conditions: Homo sapiens
HL-60 = test: Cytotoxic activity against HL-60(TB) leukemia cell lines.; format: functional; conditions: Homo sapiens
K562 = test: Cytotoxic activity against K-562 leukemia cell lines.; format: functional; conditions: Homo sapiens
BT-549 = test: Cytotoxic activity against […] breast cancer cell lines.; format: functional; conditions: Homo sapiens
SNB-19 = test: Cytotoxic activity against SNB-19 CNS tumor cell lines.; format: functional; conditions: Homo sapiens
T47D = test: Cytotoxic activity against T-47D breast cancer cell lines.; format: functional; conditions: Homo sapiens

Compound	pIC50 (P388)	pIC50 (A549)	pIC50 (HT-29)	pIC50 (SK-MEL-28)	GI50 (SK-MEL-2) [µM]	GI50 (UACC-62) [µM]	GI50 (A498) [µM]	GI50 (SNB-75) [µM]	GI50 (U-251) [µM]	GI50 (RXF 393) [µM]	GI50 (HOP-92) [µM]	GI50 (OVCAR-4) [µM]	GI50 (MDA-MB-435) [µM]	GI50 (HOP-62) [µM]	GI50 (MDA-N) [µM]	GI50 (HL-60) [µM]	GI50 (K562) [µM]	GI50 (BT-549) [µM]	GI50 (SNB-19) [µM]	GI50 (T47D) [µM]
COc1cc([C@@H]2Cc3[nH]c4ccc(Br)cc4c3[C@@H]3C(=O)N(c4ccccc4)C(=O)[C@H]23)cc(OC)c1OC	< 4.75	< 4.75	< 4.75	< 4.75	–	–	–	–	–	–	–	–	–	–	–	–	–	–	–	–
COc1cc([C@@H]2Cc3[nH]c4ccccc4c3[C@@H]3C(=O)N(c4ccccc4)C(=O)[C@H]23)cc(OC)c1OC	6.30	5.68	5.68	5.68	27.5	24	33.1	26.9	34.7	20.4	13.2	26.9	21.9	16.2	30.2	31.6	31.6	25.1	25.7	25.1
COc1cc([C@@H]2Cc3[nH]c4ccc(C)cc4c3[C@@H]3C(=O)N(c4ccccc4)C(=O)[C@H]23)cc(OC)c1OC	4.70	4.70	4.70	4.70	–	–	–	–	–	–	–	–	–	–	–	–	–	–	–	–
